11 compounds from patent publication US5250679A, “Nonpeptidyl platelet aggregation inhibitors having specificity for the GPIIb III receptor” (Genentech, Inc., priority 1992, dated 1993) can be followed below.

For test [1], the target named is T1, GP IIb IIIa (Homo sapiens, UniProt P05106+P08514).
T1 construct: from tissue; host or cells: outdated human platelets
The test is described as follows: GP IIb IIIa -von Willebrand factor (vWF) ELISA Assay (vWF/IIbIIIa). The conditions noted are these: Example 30, G # table. Type of test: binding. As to the method:
Microtiter plates are coated with 1.0 mg/ml GP IIb IIIa, prepared by the method of Fitzgerald et al., (Anal. Biochem. 151: 169-177 [1985]) and allowed to incubate overnight in coat buffer. The plates are then washed three times in wash buffer (0.05% Tween 20 in PBS) and 150 ml of assay buffer is added and allowed to incubate for 1-2 hours at room temperature on plate shaker. […] Fifty ml of 4.0 mg/ml vWF (prepared as described by Ledford et al., Thrombosis and Haemostasis, 64(4): 569-575 ]1990]) in assay buffer is then added and allowed to incubate for one hour at room temperature on plate-shaker. The plates are washed three times and the antibody mixture is added (1:5000 of mouse anti-vWF and 1:5000 of rabbit-anti-mouse-Fc-HRP, both commercially available) in assay buffer and incubated for 1 hour at room temperature on plate-shaker. […] The color change of OPD/H2 O2 reagent is read at 492 nm with a 405 nm reference wavelength on the filter photometer.
For orientation: ELISA stands for enzyme-linked immunosorbent assay.

In test [2] the target is T2, Human Vitronectin receptor (av b3) (Homo sapiens, UniProt P05106+P06756).
T2 construct: is purified from human placenta; from tissue; host or cells: human placenta
T2 sequence (P06756 31-889 limits assumed): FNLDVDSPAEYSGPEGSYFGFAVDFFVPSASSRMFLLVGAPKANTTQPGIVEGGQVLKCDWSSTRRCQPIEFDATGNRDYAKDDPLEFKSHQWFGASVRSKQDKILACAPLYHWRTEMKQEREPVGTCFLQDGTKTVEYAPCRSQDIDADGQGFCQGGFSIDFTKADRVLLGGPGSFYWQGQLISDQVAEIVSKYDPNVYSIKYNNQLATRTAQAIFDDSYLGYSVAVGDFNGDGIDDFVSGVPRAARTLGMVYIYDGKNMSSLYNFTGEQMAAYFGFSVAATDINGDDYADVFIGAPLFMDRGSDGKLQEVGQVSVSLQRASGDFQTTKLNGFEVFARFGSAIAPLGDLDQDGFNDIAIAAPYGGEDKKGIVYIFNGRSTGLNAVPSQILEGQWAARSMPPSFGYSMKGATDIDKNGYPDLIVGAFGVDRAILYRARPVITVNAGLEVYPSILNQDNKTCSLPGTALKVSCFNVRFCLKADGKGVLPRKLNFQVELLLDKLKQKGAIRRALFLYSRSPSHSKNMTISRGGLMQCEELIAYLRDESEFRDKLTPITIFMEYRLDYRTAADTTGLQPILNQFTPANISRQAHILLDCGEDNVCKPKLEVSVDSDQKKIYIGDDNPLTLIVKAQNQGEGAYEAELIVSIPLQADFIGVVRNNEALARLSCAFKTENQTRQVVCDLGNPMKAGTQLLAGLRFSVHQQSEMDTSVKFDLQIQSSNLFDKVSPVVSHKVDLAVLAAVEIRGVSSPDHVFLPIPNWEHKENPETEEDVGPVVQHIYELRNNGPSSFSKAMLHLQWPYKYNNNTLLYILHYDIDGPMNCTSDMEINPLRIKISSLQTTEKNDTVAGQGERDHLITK
T2 sequence (P06756 891-1048 partner limits assumed): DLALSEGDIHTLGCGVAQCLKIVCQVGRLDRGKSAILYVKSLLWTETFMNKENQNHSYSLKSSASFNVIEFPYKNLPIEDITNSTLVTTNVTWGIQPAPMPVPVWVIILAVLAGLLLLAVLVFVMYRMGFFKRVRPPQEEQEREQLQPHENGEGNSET
T2 sequence (P05106 27-788): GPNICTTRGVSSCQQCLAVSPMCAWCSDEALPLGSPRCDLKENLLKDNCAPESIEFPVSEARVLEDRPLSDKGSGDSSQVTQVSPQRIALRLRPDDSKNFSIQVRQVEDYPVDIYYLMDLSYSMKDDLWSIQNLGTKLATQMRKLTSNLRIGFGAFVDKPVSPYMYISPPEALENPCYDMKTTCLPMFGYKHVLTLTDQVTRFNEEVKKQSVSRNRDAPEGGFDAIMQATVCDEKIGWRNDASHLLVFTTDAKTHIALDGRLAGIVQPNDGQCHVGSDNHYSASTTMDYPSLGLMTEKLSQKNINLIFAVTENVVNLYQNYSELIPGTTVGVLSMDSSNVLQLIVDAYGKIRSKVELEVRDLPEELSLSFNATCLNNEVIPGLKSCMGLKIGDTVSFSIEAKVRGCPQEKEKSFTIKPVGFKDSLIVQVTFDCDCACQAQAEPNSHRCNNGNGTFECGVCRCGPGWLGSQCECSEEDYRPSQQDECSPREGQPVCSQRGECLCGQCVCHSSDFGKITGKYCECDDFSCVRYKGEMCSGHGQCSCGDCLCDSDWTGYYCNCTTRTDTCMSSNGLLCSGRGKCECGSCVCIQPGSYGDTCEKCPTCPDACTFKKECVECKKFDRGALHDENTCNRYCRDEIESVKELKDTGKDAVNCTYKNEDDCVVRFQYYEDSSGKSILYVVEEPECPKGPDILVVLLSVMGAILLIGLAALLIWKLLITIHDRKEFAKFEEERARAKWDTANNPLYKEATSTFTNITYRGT
The test is described as follows: Human Vitronectin-Vitronectin Receptor (av b3) ELISA Assay (Vn/VnR). Type of test: binding. To be noted: Example 30, G # table.
Text: Human vitronectin (Vn) is isolated from human plasma and purified by affinity chromatography by the method of Yatohgo et. al., (Cell Structure and Function 13: 281-292 [1988]).
Human vitronection receptor (VnR) is purified from human placenta by the method of Pytela et al., (Methods Enzymol., 144: 475 [1987]). Alternatively the av b3 receptor can be purified from some cell lines (e.g., human embryonic kidney 293 cells) transfected with DNA sequences for both the av and b3 subunits. The subunits are purified by employing octylglucoside extraction followed by Con-A, Heparin-Sepharose, and S-300 Chromatography.
This mouse Mab is specific for the b3 subunit of the vitronectin receptor.
Rabbit Fab 2 anti-mouse Fc fragment horse radish peroxidase conjugate (anti-MuFc HRP) is obtained from PelFreeze (cat. no. 715305-1).
Maxisorp microtiter plates are coated with 2 mg/ml human vitronectin dissolved in PBS (50 ml/well) and stored overnight at 4° C. The plates are washed two times with PBS-0.05% Tween-20 (wash buffer) and blocked by incubating with about 150 ml/well of assay buffer (1%, BSA [RIA grade or better] in 50 mM Tris-HCl, 100 mM NaCl, 1 mM MgCl2, CaCl2, MnCl2 pH 7.4) for 60 minutes. […] The blocked plates are emptied and 25 ml/well of inhibitor or standard solution is added to each well. Twenty-five ml of a 30 mg/ml solution of purified av b3 in assay buffer is pipetted into the coated plate. The final concentration of receptor in the assay well is about 15 mg/ml. The plate is incubated on a shaker for 60 minutes. Meanwhile, for each microtite plate, 6 ml buffer solution containing 1.5 mg/ml of mouse monoclonal antibody specific for b3 is prepared. To this solution is added ml of the secondary antibody, which is anti-mouse-Fc-HRP antibody conjugate. For example, for one plate, prepare 6 ml of a 1.5 mg/ml mouse Mab solution to which is added 1 ml of anti-mouse-Fc-HRP antibody stock, (this represents a 1:6000 dilution of the antibody-HRP conjugate). This mixture is allowed to incubate during the receptor-inhibitor incubation. The assay plates are washed 4 times with PBS-Tween and 50 ml/well of the antibody mixture is then pipetted into the plate for a 60 minute incubation. The plate is washed 4 times and the color reaction is developed with 50 ml/well of 0.67 mg/ml o-phenyldiamine in PBS containing 0.012% H2 O2. Alternatively, 16 mM citric acid, 50 mM Na2 PO4 at pH 5.0 can be used as a substrate buffer. The reaction is stopped with 50 ml/well 1 M H2 SO4. The plates are read at 492-405 nm and the data analyzed by four-parameter fit.

Test [3] deals with T1, GP IIb IIIa. The test is described as follows: Fibrinogen-GP IIb IIIa Receptor ELISA Binding Assay (Fg/IIbIIIa). The procedure, abridged:
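Purified human platelet GP IIb IIIa binding to immobilised purified fibrinogen was run with compound at room temperature for 1 h. IC50 values were determined.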

The subject of test [4] is human platelet rich plasma (PRP). The test is described as follows: In Vitro Human Platelet Aggregation Assay (PA). Type of test: cell-based. To be noted: Homo sapiens, Platelet. As to the method: In addition to the GPIIb IIIa ELISA assay, platelet aggregation assays may be performed in human platelet rich plasma (PRP). […] The blood is centrifuged at 160×g for 10 min at 22° C. and then allowed to stand for 5 min after which the PRP is decanted. Platelet poor plasma (PPP) is isolated from the remaining blood after centrifugation at 2000×g for 25 min. The platelet count of the PRP is adjusted to ca. 300,000 per microliter with PPP.
A 225 mL aliquot of PRP plus 25 mL of either a dilution of the test sample or a control (PBS) is incubated for 5 min in a Chrono-log Whole Blood Aggregometer at 25° C. An aggregating agent (collagen, 1 mg/ml; U46619, 100 ng/ml; or ADP, 8 mM) is added and the platelet aggregation recorded.
Platelet aggregation assays are performed in human platelet rich plasma (PRP). […] The blood is centrifuged at 160×g for 10 minutes at 22° C. and allowed to stand for 5 minutes after which the PRP is decanted. Platelet poor plasma (PPP) is isolated from the remaining blood after centrifugation at 2000×g for 25 minutes. The platelet count of the PRP is diluted to about 300,000 platelets per microliter with PPP.
A 225 ml aliquot of PRP plus 25 ml of either a dilution of the test inhibitor sample or a control (PBS) is incubated for 5 minutes in a Chrono-log Whole Blood Aggregometer at 25° C. An aggregating agent (collagen, 1 mg/ml; U46619, 100 ng/ml; or ADP, 17 mM) is added and the transmission is recorded.

[5] abbreviates: Example 29, Cmpd # 1-105, read-out: IC50 Fg/IIbI.
[6] abbreviates: Example 30, G # table, read-out: IC50 (μM) Fg/IIbIIIa.
Where [7] appears, read: citrate, read-out: PA IC50 (μM) (citrate).
Setting [8] is: heparin, read-out: PA IC50 (μM) (heparin).
The mark [9] stands for this setting: Examples 29 and 30, Cmpd # tables, read-out: IC50 (μM) Fg/IIbIIIa.

SMILES strings stand for the structures. Counter-ions that a name gives are not always drawn. Like-named read-outs stand apart in the source and are kept apart here. Where only a bound is given, the exact number is not on record here.

T1 sequence (P08514 32-887 limits assumed): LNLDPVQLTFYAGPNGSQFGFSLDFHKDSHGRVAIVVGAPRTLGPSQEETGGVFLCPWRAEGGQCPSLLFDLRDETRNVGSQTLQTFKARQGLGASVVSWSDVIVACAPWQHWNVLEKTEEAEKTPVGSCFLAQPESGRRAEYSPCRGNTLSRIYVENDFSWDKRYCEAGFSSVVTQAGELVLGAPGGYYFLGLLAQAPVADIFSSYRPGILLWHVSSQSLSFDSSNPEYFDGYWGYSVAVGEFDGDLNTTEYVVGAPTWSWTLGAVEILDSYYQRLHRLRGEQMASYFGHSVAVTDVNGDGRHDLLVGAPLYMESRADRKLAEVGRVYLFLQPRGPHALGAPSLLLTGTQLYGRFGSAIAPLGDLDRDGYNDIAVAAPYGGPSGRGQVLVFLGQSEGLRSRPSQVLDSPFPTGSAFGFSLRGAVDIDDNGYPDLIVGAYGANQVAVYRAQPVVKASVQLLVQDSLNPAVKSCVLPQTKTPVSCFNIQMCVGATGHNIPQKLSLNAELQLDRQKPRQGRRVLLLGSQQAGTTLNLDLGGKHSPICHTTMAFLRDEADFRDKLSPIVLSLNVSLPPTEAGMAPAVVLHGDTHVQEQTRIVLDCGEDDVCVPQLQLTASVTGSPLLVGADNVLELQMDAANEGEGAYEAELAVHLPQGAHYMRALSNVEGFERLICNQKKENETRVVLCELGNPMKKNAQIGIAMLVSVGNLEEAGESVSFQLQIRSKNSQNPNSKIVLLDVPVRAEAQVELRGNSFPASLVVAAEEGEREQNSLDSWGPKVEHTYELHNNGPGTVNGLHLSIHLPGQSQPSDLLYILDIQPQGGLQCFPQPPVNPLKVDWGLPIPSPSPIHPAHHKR
T1 sequence (P08514 891-1039 partner limits assumed): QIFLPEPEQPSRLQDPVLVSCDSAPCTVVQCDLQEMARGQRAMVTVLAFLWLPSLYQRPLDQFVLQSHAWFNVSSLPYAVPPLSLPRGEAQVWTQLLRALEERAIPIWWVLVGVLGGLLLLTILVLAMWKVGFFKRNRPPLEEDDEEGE
T1 sequence (P05106 27-788): as the sequence (P05106 27-788) above

Consider `CN1C(=O)CN(CCC(=O)O)C(=O)c2cc(CCCCNC(=N)N)ccc21` [Cmpd 20], for which the IC50 in test [1] is 0.096 µM; in test [2] it was above 10 µM; in test [3] (setting [5]) it was 0.25 µM; in test [3] (setting [6]) it was 0.245 µM.

On to `CN1C(=O)CN(CCC(=O)O)C(=O)c2cc(CCCCCN)ccc21` [Cmpd 27, 1-methyl-4-(2-carboxyethyl)-7-(5-amino-1-pentyl)-3,4-dihydro-1H-1,4-benzodiazepine-2,5-dione trifluroacetate], for which the IC50 was 0.78 µM in test [1], above 10 µM in test [2], 1.9 µM in test [3] (setting [5]) and 1.9 µM in test [3] (setting [6]).

Take `CN1C(=O)CN(CCC(=O)O)C(=O)c2cc(CCCCCNC(=N)N)ccc21` [Cmpd 28, 1-methyl-4-(2-carboxyethyl)-7-(5-guanidino-1-pentyl)-3,4-dihydro-1H-1,4-benzodiazepine-2,5-dione trifluroacetate]: the IC50 in test [1] is 0.024 µM; in test [2] it was above 10 µM; in test [3] (setting [5]), 0.055 µM; in test [3] (setting [6]), 0.055 µM.

With `CN1C(=O)CN(CCC(=O)O)C(=O)c2cc(C#CCCCN)ccc21` [Cmpd 33, 1-methyl-4-(2-carboxyethyl)-7-(5-amino-1-pentynyl)-3,4-dihydro-1H-1,4-benzodiazepine-2,5-dione trifluroacetate], the IC50 in test [4] (setting [7]) is 85.5 µM; in test [1], 0.39 µM; in test [2], above 10 µM; in test [3] (setting [5]), 0.096 µM; in test [3] (setting [6]) it was 0.096 µM.

On to `N=C(N)NCCCC#Cc1ccc2c(c1)C(=O)N(CCC(=O)O)CC(=O)N2Cc1cccc([N+](=O)[O-])c1` [Cmpd 36, 1-(3-nitrobenzyl)-4-(2-carboxyethyl)-7-(5-guanidino-1-pentynyl)-3,4-dihydro-1H-1,4-benzodiazepine-2,5-dione trifluroacetate], for which the IC50 in test [4] (setting [7]) worked out at 0.94 µM; in test [1], 0.0004 µM; in test [2], 3 µM; in test [3] (setting [5]), 0.0032 µM; in test [3] (setting [6]), 0.0032 µM.

Turning to `NCCCCCCc1ccc2c(c1)C(=O)N(CCC(=O)O)CC(=O)N2C(c1ccccc1)c1ccccc1` [Cmpd 72, 1-(diphenylmethyl)-4-(2-carboxyethyl)-7-(6-aminohexyl)-3,4-dihydro-1H-1,4-benzodiazepine-2,5-dione trifluoroacetate], the IC50 in test [4] (setting [7]) was 0.46 µM; in test [4] (setting [8]) it was 1.1 µM; in test [2], above 10 µM; in test [3] (setting [5]), 0.022 µM; in test [3] (setting [6]) it was 0.022 µM.

With `N=C(N)NCCCC#Cc1ccc2c(c1)C(=O)N(CCC(=O)O)CC(=O)N2Cc1cccc(NC(=O)CNC(=N)N)c1` [Cmpd 107], the IC50 in test [4] (setting [7]) is 0.61 µM; in test [4] (setting [8]) it was 0.89 µM; in test [2] it was above 10 µM; in test [3] (setting [6]), 0.018 µM; in test [3] (setting [9]), 0.018 µM.

Consider `NCCCCCCc1ccc2c(c1)C(=O)N(CCC(=O)O)CC(=O)N2Cc1cccc(NC(=O)CN)c1` [Cmpd 108], for which the IC50 in test [4] (setting [7]) is 0.55 µM; in test [4] (setting [8]), 1.09 µM; in test [2], above 10 µM; in test [3] (setting [6]) it was 0.012 µM; in test [3] (setting [9]) it was 0.012 µM.

`N=C(N)NCCCCCCc1ccc2c(c1)C(=O)N(CCC(=O)O)CC(=O)N2Cc1cccc(NC(=O)CNC(=N)N)c1` [Cmpd 109]: the IC50 in test [4] (setting [7]) is 1.19 µM; in test [2] it was above 10 µM; in test [3] (setting [6]), 0.017 µM; in test [3] (setting [9]) it was 0.017 µM.

In the case of `NCCCCCCc1ccc2c(c1)C(=O)N(CCC(=O)O)CC(=O)N2Cc1cccc(NC(=O)CCN)c1` [Cmpd 110, 1-[3-(3-aminopropionyl)aminophenyl]methyl-4-(2-carboxyethyl)-7-(6-aminohexyl)-3,4-dihydro-1H-1,4-benzodiazapine-2,5-dione bistrifluoroacetate], the IC50 in test [4] (setting [7]) is 0.28 µM; in test [4] (setting [8]) it was 0.83 µM; in test [2], above 10 µM; in test [3] (setting [6]) it was 0.008 µM; in test [3] (setting [9]), 0.008 µM.

For `N=C(N)NCCCCCCc1ccc2c(c1)C(=O)N(CCC(=O)O)CC(=O)N2Cc1cccc(NC(=O)CCNC(=N)N)c1` [Cmpd 111], the IC50 in test [4] (setting [7]) was 1.14 µM; in test [4] (setting [8]), 1.49 µM; in test [2], above 10 µM; in test [3] (setting [6]) it was 0.01 µM; in test [3] (setting [9]) it was 0.01 µM.
